Experimental data as given in US6043279A, “Compounds having selective activity for retinoid X receptors, and means for modulation of processes mediated by retinoid X receptors” (priority 1997, dated 2000).

How the values were obtained:
Type in all cases: cell-based
RARβ = target: T1, RARβ (Homo sapiens, UniProt P10826); experiment: co-transfection (cis-trans) assay in CV-1 cells, RARβ; conditions: for Emax: CV-1, maximal response relative to all-trans-retinoic acid at 10^-5 M, read-out: Efficacy RARβ; for EC50: CV-1 cells, luciferase reporter, concentration giving 50% of maximal observed response, read-out: Potency (nM) RARβ
T1 construct: expressed in transfected cells; host or cells: CV-1 (monkey kidney)
T1 sequence (P10826 1-448 isoform P10826-2): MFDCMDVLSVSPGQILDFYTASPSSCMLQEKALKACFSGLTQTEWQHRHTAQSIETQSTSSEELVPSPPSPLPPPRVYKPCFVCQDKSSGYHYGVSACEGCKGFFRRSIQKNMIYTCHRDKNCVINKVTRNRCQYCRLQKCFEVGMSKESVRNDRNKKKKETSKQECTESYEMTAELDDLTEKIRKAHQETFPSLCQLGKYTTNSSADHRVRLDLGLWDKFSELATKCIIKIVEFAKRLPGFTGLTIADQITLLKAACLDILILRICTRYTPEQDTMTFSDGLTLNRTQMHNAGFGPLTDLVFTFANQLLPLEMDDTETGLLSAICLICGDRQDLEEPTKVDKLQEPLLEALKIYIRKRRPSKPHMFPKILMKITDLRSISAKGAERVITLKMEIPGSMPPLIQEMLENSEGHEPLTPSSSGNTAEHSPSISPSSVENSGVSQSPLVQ
Source text: (§1) The co-transfection assay provides a mechanism to evaluate the ability of a compound to modulate the transcription response initiated by an intracellular receptor. […] Berger et al., J. Steroid Biochem. Molec.
(§2) Briefly, the co-transfection assay involves the introduction of two plasmids by transient transfection into a retinoid receptor-negative mammalian cell background. The first plasmid contains a retinoid receptor cDNA and directs constitutive expression of the encoded receptor. The second plasmid contains a cDNA that encodes for a readily quantifiable protein, e.g., firefly luciferase or chloramphenicol acetyl transferase (CAT), under control of a promoter containing a retinoid acid response element, which confers retinoid dependence on the transcription of the reporter. In this co-transfection assay, all retinoid receptors respond to all-trans-retinoic acid in a similar fashion. This assay can be used to accurately measure efficacy and potency of retinoic acid and synthetic retinoids as ligands that interact with the individual retinoid receptor subtypes.
(§3) Accordingly, synthetic retinoid compounds of the current invention were evaluated for their interaction with retinoid receptor subtypes using the co-transfection assay in which CV-1 cells were co-transfected with one of the retinoid receptor subtypes, a reporter construct, and an internal control to allow normalization of the response for transfection efficiency. The following example is illustrative.
(§4) Retinoids: All-trans-retinoic acid (RA) and 13-cis-retinoic acid (13-cis-RA) were obtained from Sigma. […] Retinoids were dissolved in dimethylsulfoxide for use in the transcriptional activation assays.
(§5) Co-transfection Assay In CV-1 Cells: A monkey kidney cell line, CV-1, was used in the cis-trans assay. Cells were transfected with two plasmids. […] The cis-vector contains an easily assayable gene product, in this case the firefly luciferase, coupled to a retinoid-responsive promoter, i.e., an RARE or RXRE. Addition of retinoic acid or an appropriate synthetic retinoid results in the formation of a retinoid-RAR or -RXR complex that activates the expression of luciferase gene, causing light to be emitted from cell extracts. The level of luciferase activity is directly proportional to the effectiveness of the retinoid-receptor complex in activating gene expression. This sensitive and reproducible co-transfection approach permits the identification of retinoids that interact with the different receptor isoforms.
(§6) Cells were cultured in DMEM supplemented with 10% charcoal resin-stripped fetal bovine serum, and experiments were conducted in 96-well plates. […] Cells were transfected for 6 h and then washed to remove the precipitate. The cells were then incubated for 36 h with or without retinoid. […]

RARγ = target: T2, RARγ (Homo sapiens, UniProt P13631); experiment: co-transfection (cis-trans) assay in CV-1 cells, RARγ; conditions: for Emax: CV-1, maximal response relative to all-trans-retinoic acid at 10^-5 M, read-out: Efficacy RARγ; for EC50: CV-1 cells, luciferase reporter, concentration giving 50% of maximal observed response, read-out: Potency (nM) RARγ
T2 construct: expressed in transfected cells; host or cells: CV-1 (monkey kidney)
T2 sequence (P13631 1-454): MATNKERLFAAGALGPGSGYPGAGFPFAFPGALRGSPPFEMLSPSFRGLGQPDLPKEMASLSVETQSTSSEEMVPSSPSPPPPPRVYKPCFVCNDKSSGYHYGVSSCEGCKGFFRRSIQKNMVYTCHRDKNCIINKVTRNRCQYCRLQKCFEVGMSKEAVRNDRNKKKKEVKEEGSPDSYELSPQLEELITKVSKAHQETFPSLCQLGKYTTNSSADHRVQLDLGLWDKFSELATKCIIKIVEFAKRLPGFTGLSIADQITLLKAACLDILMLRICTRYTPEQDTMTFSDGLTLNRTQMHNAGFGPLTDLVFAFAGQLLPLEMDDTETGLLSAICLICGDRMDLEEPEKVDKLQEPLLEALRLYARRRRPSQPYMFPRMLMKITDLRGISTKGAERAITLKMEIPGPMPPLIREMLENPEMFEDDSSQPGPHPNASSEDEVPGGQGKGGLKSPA
Source text: as §1, §2, §3, §4, §5, §6

RXRγ = target: T3, RXRγ (Mus musculus, UniProt P28705); experiment: co-transfection (cis-trans) assay in CV-1 cells, RXRγ; conditions: for Emax at 10 µM: CV-1, maximal response relative to all-trans-retinoic acid at 10^-5 M, read-out: Efficacy RXRγ; for EC50: CV-1 cells, luciferase reporter, concentration giving 50% of maximal observed response, read-out: Potency (nM) RXRγ
T3 construct: expressed in transfected cells; host or cells: CV-1 (monkey kidney)
T3 sequence (P28705 1-463): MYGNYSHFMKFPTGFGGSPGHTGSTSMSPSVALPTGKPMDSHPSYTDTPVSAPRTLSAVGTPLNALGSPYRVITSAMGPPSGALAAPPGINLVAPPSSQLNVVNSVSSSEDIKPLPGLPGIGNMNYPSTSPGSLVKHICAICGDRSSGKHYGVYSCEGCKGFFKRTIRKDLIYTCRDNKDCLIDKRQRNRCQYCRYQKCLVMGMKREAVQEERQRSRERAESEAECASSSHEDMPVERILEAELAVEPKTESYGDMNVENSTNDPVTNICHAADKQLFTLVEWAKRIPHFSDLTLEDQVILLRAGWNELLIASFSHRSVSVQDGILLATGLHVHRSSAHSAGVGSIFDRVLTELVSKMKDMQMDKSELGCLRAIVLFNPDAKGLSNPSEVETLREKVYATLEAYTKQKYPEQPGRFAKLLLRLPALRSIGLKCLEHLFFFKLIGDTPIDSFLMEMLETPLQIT
Source text: as §1, §2, §3, §4, §5, §6

Compound	Emax (RARβ) [%]	EC50 (RARβ) [nM]	Emax (RARγ) [%]	EC50 (RARγ) [nM]	Emax at 10 µM (RXRγ) [%]	EC50 (RXRγ) [nM]
C=C(c1ccc(C(=O)O)cc1)c1ccc(C(C)(C)C)cc1C [Compound 133, 4-[1-(2-methyl-4-t-butylphenyl)ethenyl]benzoic acid]	< 2	> 10000	< 2	> 10000	91	290
Cc1cc(C(C)(C)C)ccc1C(=NO)c1ccc(C(=O)O)cc1 [Compound 137, 4-[(2-methyl-4-t-butylphenyl)carbonyl]benzoic acid oxime]	< 2	> 10000	< 2	> 10000	50	190
